Series [1] deals with Mtb-infected activated THP-1 macrophages. It is filed as cell-based, human.
The next series relates to Mtb H37Rv (H37RvMA). The series is described as follows: MIC by broth microdilution, AlamarBlue assay. The conditions noted are these: Mycobacterium tuberculosis. Type of series: cell-based.
Series [2] has as its system Corynebacterium glutamicum. The settings on record: phenotypic screen; cited from earlier work.
A further series deals with replicating H37Rv. As to the kind of experiment: microbe, parasite or virus in culture. Type of series: cell-based, Mycobacterium tuberculosis.
The next series addresses human ERG channel (Homo sapiens, UniProt Q12809). As to the kind of experiment: cell-based.
For series [3], the system named is nonreplicating, streptomycin-starved Mtb 18b or 18b-Lux. The series is described as follows: Activity against nonreplicating bacilli. The conditions noted are these: concentrations up to 20 μM. Type of series: cell-based, Mycobacterium tuberculosis.
The conditions of series [4]: human primary hepatocytes.
Series [5] has as its system Mtb guaB2-guaB3 Tet-OFF attB::guaB3. As to the kind of experiment: microbe, parasite or virus in culture. It is filed as cell-based, Mycobacterium tuberculosis. The conditions noted are these: for effect of guaB2 silencing on susceptibility: data not shown.
For the next series, the target named is Mtb GuaB2 (Mycobacterium tuberculosis, UniProt P9WKI7). As to the kind of experiment: biochemical.
Series [6] relates to Mtb H37Rv attB::guaB2-guaB3. As to the kind of experiment: MIC by AlamarBlue assay. The conditions noted are these: Mycobacterium tuberculosis. It is filed as cell-based. A general note: The colour change of resazurin is a common sign of viable cells or microbes.
For another series, the system named is Mtb SRMV2.3. As to the kind of experiment: microbe, parasite or virus in culture. It is filed as cell-based. The conditions noted are these: Mycobacterium tuberculosis.
For the next series, the system named is Mtb SRMV2.10. As to the kind of experiment: microbe, parasite or virus in culture. Type of series: cell-based. The settings on record: Mycobacterium tuberculosis.
The next series relates to Mtb SRMV2.6 attB::guaB2. The series is described as follows: MIC by AlamarBlue assay. The settings on record: Mycobacterium tuberculosis. Type of series: cell-based.
The conditions of series [7]: human and rodent liver microsomes and human liver primary hepatocytes.
The test system of the next series is Mtb H37Rv attB::guaB2. The series is described as follows: MIC by AlamarBlue assay. Type of series: cell-based. The settings on record: Mycobacterium tuberculosis.
Series [8] concerns Mtb H37Rv. The series is described as follows: Checkerboard assay, purine supplementation versus VCC234718. Type of series: cell-based, Mycobacterium tuberculosis. The settings on record: for MIC90: Mycobacterium tuberculosis, H37RV.
For the next series, the system named is Mtb SRMV2.6. The series is described as follows: microbe, parasite or virus in culture. It is filed as cell-based, Mycobacterium tuberculosis.
For series [9], the system named is Caco-2/TC-7 cell monolayers. The conditions noted are these: threshold value 20 × 10^–7 cm s^–1.
Series [10] deals with Mtb H37Rv. The series is described as follows: Time-kill kinetics. Type of series: cell-based. The conditions noted are these: Mycobacterium tuberculosis, read-out: 99% minimum bactericidal concentration (MBC99).
The subject of series [11] is Mtb SRMV2.6 attB::guaB2-guaB3. As to the kind of experiment: MIC by AlamarBlue assay. It is filed as cell-based. The conditions noted are these: Mycobacterium tuberculosis.
In series [12] the test system is PDIM-deficient H37Rv strain (H37RvJO). As to the kind of experiment: MIC by AlamarBlue assay. It is filed as cell-based. The conditions noted are these: Mycobacterium tuberculosis.
For series [13], the system named is Mtb-infected MRC-5 fibroblasts. Type of series: cell-based, human. The settings on record: concentration up to 50 μM.
Series [14] has as its system Mtb guaB2-guaB3 Tet-OFF attB::guaB3 and guaB2-guaB3 Tet-OFF. Type of series: cell-based, Mycobacterium tuberculosis.

In brackets after ≈: the same amount, converted by molar mass. Entries after “also recorded” stand apart in the source; their conditions may differ.

Here are results for ten compounds from publication PMC5241705 (ACS Infectious Diseases, 2016).

As usually defined, the inhibition is how much of the control response was suppressed. Usually IC50 stands for the midpoint of a concentration-inhibition curve. Usually Ki stands for the equilibrium dissociation constant of an inhibitor or competing ligand from its target. The low end stands for tighter binding, the high end for weaker binding.

Sequence of Mtb GuaB2 (P9WKI7 whole entry, looked up): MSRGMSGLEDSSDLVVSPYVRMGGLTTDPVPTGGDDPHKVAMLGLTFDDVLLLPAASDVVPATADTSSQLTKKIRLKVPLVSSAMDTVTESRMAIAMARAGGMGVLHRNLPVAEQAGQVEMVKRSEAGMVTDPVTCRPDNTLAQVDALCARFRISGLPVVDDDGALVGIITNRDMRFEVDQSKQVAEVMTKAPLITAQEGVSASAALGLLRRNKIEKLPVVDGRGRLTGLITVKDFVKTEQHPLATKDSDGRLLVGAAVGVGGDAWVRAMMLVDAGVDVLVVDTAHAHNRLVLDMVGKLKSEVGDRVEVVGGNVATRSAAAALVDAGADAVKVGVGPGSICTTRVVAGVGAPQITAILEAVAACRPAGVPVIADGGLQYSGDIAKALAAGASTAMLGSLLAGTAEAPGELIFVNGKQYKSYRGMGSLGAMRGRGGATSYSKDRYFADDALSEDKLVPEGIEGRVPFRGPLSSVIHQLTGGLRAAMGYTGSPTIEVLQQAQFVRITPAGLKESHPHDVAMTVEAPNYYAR
Sequence of human ERG channel (Q12809 whole entry): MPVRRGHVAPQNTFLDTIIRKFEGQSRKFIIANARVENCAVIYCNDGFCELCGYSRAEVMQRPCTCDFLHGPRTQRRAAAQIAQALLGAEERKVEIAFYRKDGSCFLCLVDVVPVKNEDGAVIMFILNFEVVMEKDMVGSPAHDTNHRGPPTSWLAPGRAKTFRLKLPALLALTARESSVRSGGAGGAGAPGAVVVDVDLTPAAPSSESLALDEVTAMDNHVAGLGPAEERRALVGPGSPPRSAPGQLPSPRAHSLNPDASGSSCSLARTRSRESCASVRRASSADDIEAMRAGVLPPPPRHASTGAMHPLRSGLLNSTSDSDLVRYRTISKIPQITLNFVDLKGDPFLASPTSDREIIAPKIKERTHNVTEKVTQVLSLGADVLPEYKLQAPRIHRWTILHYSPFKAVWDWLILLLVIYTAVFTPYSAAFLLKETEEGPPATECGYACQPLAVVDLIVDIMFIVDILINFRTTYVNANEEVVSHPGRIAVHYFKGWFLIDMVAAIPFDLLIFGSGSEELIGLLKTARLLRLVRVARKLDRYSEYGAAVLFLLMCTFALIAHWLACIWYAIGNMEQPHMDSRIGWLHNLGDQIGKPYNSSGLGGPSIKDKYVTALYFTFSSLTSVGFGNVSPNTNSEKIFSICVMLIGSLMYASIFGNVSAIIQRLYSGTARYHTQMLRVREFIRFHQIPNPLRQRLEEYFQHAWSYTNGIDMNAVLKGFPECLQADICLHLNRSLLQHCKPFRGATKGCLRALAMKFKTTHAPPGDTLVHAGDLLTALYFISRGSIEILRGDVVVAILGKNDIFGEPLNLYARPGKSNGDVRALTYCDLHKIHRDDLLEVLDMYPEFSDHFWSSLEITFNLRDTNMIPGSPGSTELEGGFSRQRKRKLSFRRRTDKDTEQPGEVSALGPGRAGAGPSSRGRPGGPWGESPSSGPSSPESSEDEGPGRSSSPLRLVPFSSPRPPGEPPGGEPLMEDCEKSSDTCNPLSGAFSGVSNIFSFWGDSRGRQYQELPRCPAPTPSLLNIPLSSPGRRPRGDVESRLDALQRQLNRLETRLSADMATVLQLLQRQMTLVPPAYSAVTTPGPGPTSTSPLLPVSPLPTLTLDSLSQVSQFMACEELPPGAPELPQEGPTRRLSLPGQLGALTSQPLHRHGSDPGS

Take `O=C(C1CCCCC1)N1CCN(S(=O)(=O)c2cccc3cnccc23)CC1` [VCC234718, N-(5-Isoquinolinylsulfonyl)-N’-cyclohexanoyl-piperazine]: the “concentrations displaying anticytolytic activity in activated THP-1 macrophages” value in series [1] was more than 1 µM. The MIC90 against Mtb H37Rv (H37RvMA) is 2 µM (≈ 0.775 µg/mL); in the series on replicating H37Rv (Mycobacterium tuberculosis, H37RV, read-out: 90% minimum inhibitory concentration (MIC90)) it was 5 µM (≈ 1.94 µg/mL); in [5] (Mycobacterium tuberculosis, checkerboard, before guaB2 silencing (lowest ATc)), 2.5 µM; in [6] it was 4 to 8 µM (≈ 1.55 to 3.1 µg/mL); against Mtb SRMV2.3 it was 16 µM (≈ 6.2 µg/mL); in the series with Mtb SRMV2.10, 8 µM (≈ 3.1 µg/mL). Also, the MIC90 against Mtb SRMV2.6 attB::guaB2 is more than 200 µM; against Mtb H37Rv attB::guaB2, 4 to 8 µM (≈ 1.55 to 3.1 µg/mL); with Mtb H37Rv [8] (checkerboard, without guanine), 2 µM; in the series on Mtb H37Rv [8] (guanine concentration of 200 μM), more than 64 µM; with Mtb SRMV2.6 (Mycobacterium tuberculosis, SRMV2.6), more than 100 µM; in the series with Mtb SRMV2.6 (strain SRMV2.6), more than 100 µM. Besides, the MIC90 is more than 200 µM in series [11] and 2 µM (≈ 0.775 µg/mL) in series [12]. In series [2], the whole-cell activity result is given as “not against Corynebacterium glutamicum”. For the same compound, the inhibition at 20 µM with replicating H37Rv (Mycobacterium tuberculosis, H37RV, 168 h, read-out: percentage inhibition of resazurin reduction) was more than 80%. For the same compound, the “inhibition of H37Rv growth” value in the series with replicating H37Rv (at 20 μM) is listed as “totally inhibit”. In addition, on human ERG channel, the IC50 is 13700 nM. Besides, the “inhibition of nonreplicating Mtb” value in series [3] is “not significantly inhibiting”. The “contribution of CYP3A4 to metabolism (in words)” value in series [4] was “no contribution”. Further, the Ki at Mtb GuaB2 (Mtb GuaB2) came to 100 nM; at Mtb GuaB2 (Mtb GuaB2, IMP as the substrate), 120 nM. The mechanism of inhibition result at Mtb GuaB2 (with respect to IMP and NAD+) is listed as “uncompetitive”. For the same compound, the “metabolism (in words)” value in series [7] is “highly metabolized”. In addition, the “permeability (in words)” value in series [9] is reported as “very high”. For the same compound, the MBC with Mtb H37Rv [10] was 16 to 32 µM (≈ 6.2 to 12.4 µg/mL). Also, the “anticytolytic activity in MRC-5 fibroblasts” value in [13] was “completely inactive”.
Consider `Nc1nc2c(ncn2[C@@H]2O[C@H](CO)[C@@H](O)[C@H]2O)c(=O)[nH]1` [guanosine], for which, in the series with Mtb H37Rv [8], the “effect of supplementation on VCC234718 toxicity” value was “neither adenine nor guanosine supplementation was able to rescue; also recorded: failed to rescue”.
As to `CO[C@H]1/C=C/O[C@@]2(C)Oc3c(C)c(O)c4c(O)c(c(/C=N/N5CCN(C)CC5)c(O)c4c3C2=O)NC(=O)/C(C)=C\C=C\[C@H](C)[C@H](O)[C@@H](C)[C@@H](O)[C@@H](C)[C@H](OC(C)=O)[C@@H]1C` [rifampicin], the “effect of guaB2 silencing on susceptibility” value in [5] was “no effect”.
For `Nc1nc2nc[nH]c2c(=O)[nH]1` [guanine], the “rescue of Mtb from VCC234718 toxicity” value in the series on Mtb H37Rv [8] (VCC234718 at 128 μM) was “unable to rescue”. Besides, the “guanine concentration giving essentially complete rescue from ATc toxicity” value in series [14] is not below 125 µM.
On to `C[C@H]1COc2c(N3CCN(C)CC3)c(F)cc3c(=O)c(C(=O)O)cn1c23` [levofloxacin], for which the “effect of guaB2 silencing on susceptibility” value in series [5] is “no effect”.
Still for that read-out and setting: as for `NNC(=O)c1ccncc1` [isoniazid], the entry is “no effect”; as for `CC[C@@H](CO)NCCN[C@@H](CC)CO` [ethambutol], “no effect”.
Same read-out and setting: as for `[H]/N=C(/N)N[C@H]1[C@H](O)[C@@H](O)[C@H](O[C@@H]2O[C@@H](C)[C@](O)(C=O)[C@H]2O[C@@H]2O[C@@H](CO)[C@H](O)[C@@H](O)[C@@H]2NC)[C@@H](N/C(N)=N\[H])[C@@H]1O` [streptomycin], the entry is “no effect”.
Turning to `Nc1ncnc2[nH]cnc12` [adenine], the “effect of supplementation on VCC234718 toxicity” value with Mtb H37Rv [8] is “neither adenine nor guanosine supplementation was able to rescue”.
The same measure, in the same setting: as for `O=c1[nH]c(=O)c2nc[nH]c2[nH]1` [xanthine], the entry is “no effect”.
